Measured values published in article PMC10056485 (International Journal of Molecular Sciences, 2023).
Values joined by “and” are separate entries in the source; they are usually repeats but may differ in a detail not shown here. Equal values may be shown once. Read-outs that look alike come from different tables or passages of the source. Marks after values point to notes of the source that are not given here. Each block holds one molecule with its values, some of them ahead of it.

Key:
[1] = Organ distribution (biodistribution) of cabozantinib in rats with or without radiotherapy; assay type: in vivo, Sprague–Dawley rats; conditions: for Concentration of cabozantinib in brain / Concentration of cabozantinib in heart / Concentration of cabozantinib in kidney / Concentration of cabozantinib in liver / Concentration of cabozantinib in lung / Concentration of cabozantinib in spleen: rat, 6 mg/kg p.o. 3 days, six hours after administration
Method: The whole liver was targeted for irradiation. […] The data were collected from six rats per group.
Nine Gy was used to simulate the SBRT dose.
The brain, liver, heart, spleen, lung and kidney were collected and weighed. These collected samples were stored at −20 °C until analysis.
The thawed organ samples were homogenized in 50% aqueous acetonitrile (the ratio of sample weight to volume was 1:5), and the homogenate was centrifuged at 13,000× g for 10 min at 4 °C. The supernatant was collected, placed in brown Eppendorf tubes, and stored at −20 °C until analysis. Briefly, each organ sample (50 μL) was combined with 150 μL of IS solution (diethylstilbestrol) for protein precipitation. Finally, 20 μL of filtrate was subjected to HPLC analysis.

[2] = Sprague-Dawley, rat, in vivo
Method: (§1) The HPLC system consisted of a chromatographic pump (LC-20AT), an online injector (SIL-20C) equipped with a 10 μL sample loop to inject the sample and an ultraviolet detector (SPD-M20A). […] Biochanin A was used as the internal standard (IS), and the retention time of biochanin A was 3.8 min (Figure 4).
(§2) A freely moving rat model was designed for the current study [19]. Briefly, the whole liver for the EBRT technique or central area 1.5 × 1.5 cm in size for the SBRT technique of rats was localized by computed tomography. For the whole liver field, the cranial margin was set 5 mm from the top of the diaphragm, and the caudal margin was set 5 mm lower than the liver margin. The whole liver was targeted for irradiation. […] The data were collected from six rats per group.
(§3) A radiation dose of 2 Gy was considered the daily conventional dose or the off-target dose around the target that received an ablation RT dose. Nine Gy was used to simulate the SBRT dose. […] Rats were initially anesthetized with pentobarbital (50 mg/kg, i.p.) and remained anesthetized throughout the experimental period. After the surgery, the rats were placed in an experimental cage and allowed to recover for 1 day. Cabozatinib was dissolved in triply deionized water and administered (6 mg/kg, p.o.) to the rats (n = 6 per group).
(§4) Blood samples were collected via polyethylene tubing (PE-50) implanted into the jugular vein of each rat in a heparin-rinsed vial. An aliquot of 100–120 µL of blood was collected at time intervals of 0, 5, 15, 30, 45, 60, 90, 120, 150, 180, 210 and 240 min following drug administration. At each time point, 200 μL of blood was drawn into heparin-rinsed Eppendorf tubes and then centrifuged at 13,000 rpm for 10 min at 4 °C to obtain plasma. Plasma was stored at −20 °C until analysis. Each collected blood sample was transferred to a heparinized microcentrifuge tube and centrifuged at 13,000 rpm for 10 min. The resulting plasma (50 μL) was then mixed with 150 μL of internal standard solution (10 μg/mL). The denatured protein precipitate was separated by vortexing for 20 s and centrifuged at 13,000 rpm for 10 min at 4 °C.
(§5) Pharmacokinetic parameters, including the area under the concentration versus time curve (AUC), clearance (CL), elimination half-life (𝑡1/2), volume of distribution at steady state (Vss) and mean residence time (MRT), were calculated using the pharmacokinetics calculation software WinNonlin Standard Edition, Version 1.1 (Scientific Consulting, Apex, NC, USA) by a compartmental method. Relative bioavailability (RB %) = (AUCirradiated/AUCcontrol) × 100.

[3] = cited from earlier work
[4] = metastatic renal cell carcinoma patients, cited from earlier work
[5] = cited from earlier work; remark: listed apart in the source
plasma protein = conditions: cited from earlier work
[6] = set-up: method as in PMID 30649748; conditions: cited from earlier work
[7] = system: triple-negative 4T1 cells; conditions: combination of RT with cabozantinib, in vitro; cited from earlier work
tumor growth = conditions: combination of cabozantinib and irradiation, in vivo; cited from earlier work
[8] = Pharmacokinetics of cabozantinib in plasma of freely moving rats with or without liver radiotherapy; conditions: for AUC(0-t): AUC0-T; for AUC(0-t) / Cmax / MRT / Tmax / Vss: rat plasma, 6 mg/kg p.o. q.d. 3 days
Method: as §1, §2, §3, §4, §5

[9] = cited from earlier work; remark: listed apart in the source
[10] = set-up: method as in PMID 32533042; conditions: cited from earlier work; for Complete recanalization rate: p = 0.014
[11] = rats, RT9Gy×3 f'x sequential compared to RT9Gy×3 f'x concurrent regimen, p = 0.02
[12] = phase III study of HCC, cabozantinib alone
[13] = Sprague-Dawley, rat, plasma, po, 6 mg/kg, RT 2Gy x 3 f'x concurrent
[14] = Sprague-Dawley, rat, plasma, po, 6 mg/kg, RT 2Gy x 3 f'x sequential
[15] = Sprague-Dawley, rat, plasma, po, 6 mg/kg, RT 9Gy x 3 f'x concurrent
[16] = Sprague-Dawley, rat, plasma, po, 6 mg/kg, RT 9Gy x 3 f'x sequential
[17] = Sprague-Dawley, rat, plasma, po, 6 mg/kg, cabozantinib only (no RT)

Concentration of cabozantinib in brain ([1]; RT 2Gy concurrent): 0.00 ± 0.00 µg/mL or µg/g
Concentration of cabozantinib in heart ([1]; RT 2Gy concurrent): 0.52 ± 0.39 µg/mL or µg/g
Concentration of cabozantinib in kidney ([1]; RT 2Gy concurrent): 0.17 ± 0.06 µg/mL or µg/g
Concentration of cabozantinib in liver ([1]; RT 2Gy concurrent): 0.39 ± 0.16 µg/mL or µg/g
Concentration of cabozantinib in lung ([1]; RT 2Gy concurrent): 0.40 ± 0.34 µg/mL or µg/g
Concentration of cabozantinib in spleen ([1]; RT 2Gy concurrent): 0.16 ± 0.03 µg/mL or µg/g
Concentration of cabozantinib in brain ([1]; RT 2Gy sequential): 0.00 ± 0.00 µg/mL or µg/g
Concentration of cabozantinib in heart ([1]; RT 2Gy sequential): 0.26 ± 0.11 µg/mL or µg/g
Concentration of cabozantinib in kidney ([1]; RT 2Gy sequential): 0.29 ± 0.09 ^a µg/mL or µg/g
Concentration of cabozantinib in liver ([1]; RT 2Gy sequential): 0.47 ± 0.18 µg/mL or µg/g
Concentration of cabozantinib in lung ([1]; RT 2Gy sequential): 0.35 ± 0.19 µg/mL or µg/g
Concentration of cabozantinib in spleen ([1]; RT 2Gy sequential): 0.16 ± 0.05 µg/mL or µg/g
Concentration of cabozantinib in brain ([1]; RT 9Gy concurrent): 0.00 ± 0.00 µg/mL or µg/g
Concentration of cabozantinib in heart ([1]; RT 9Gy concurrent): 0.16 ± 0.05 µg/mL or µg/g
Concentration of cabozantinib in kidney ([1]; RT 9Gy concurrent): 0.16 ± 0.07 µg/mL or µg/g
Concentration of cabozantinib in liver ([1]; RT 9Gy concurrent): 0.28 ± 0.14 µg/mL or µg/g
Concentration of cabozantinib in lung ([1]; RT 9Gy concurrent): 0.16 ± 0.10 µg/mL or µg/g
Concentration of cabozantinib in spleen ([1]; RT 9Gy concurrent): 0.20 ± 0.07 µg/mL or µg/g
Concentration of cabozantinib in brain ([1]; RT 9Gy sequential): 0.00 ± 0.00 µg/mL or µg/g
Concentration of cabozantinib in heart ([1]; RT 9Gy sequential): 0.29 ± 0.09 *^b µg/mL or µg/g
Concentration of cabozantinib in kidney ([1]; RT 9Gy sequential): 0.30 ± 0.14 ^b µg/mL or µg/g
Concentration of cabozantinib in liver ([1]; RT 9Gy sequential): 0.59 ± 0.24 ^b µg/mL or µg/g
Concentration of cabozantinib in lung ([1]; RT 9Gy sequential): 0.36 ± 0.08 *^b µg/mL or µg/g
Concentration of cabozantinib in spleen ([1]; RT 9Gy sequential): 0.16 ± 0.04 µg/mL or µg/g
Concentration of cabozantinib in brain ([1]; cabozantinib only (no RT)): 0.00 ± 0.00 µg/mL or µg/g
Concentration of cabozantinib in heart ([1]; cabozantinib only (no RT)): 0.14 ± 0.06 µg/mL or µg/g
Concentration of cabozantinib in kidney ([1]; cabozantinib only (no RT)): 0.22 ± 0.06 µg/mL or µg/g
Concentration of cabozantinib in liver ([1]; cabozantinib only (no RT)): 0.44 ± 0.19 µg/mL or µg/g
Concentration of cabozantinib in lung ([1]; cabozantinib only (no RT)): 0.25 ± 0.05 µg/mL or µg/g
Concentration of cabozantinib in spleen ([1]; cabozantinib only (no RT)): 0.12 ± 0.09 µg/mL or µg/g
Increase of biodistribution in the heart ([1]; rats, RT2Gy×3 f'x concurrent regimen, printed as compared to the concurrent regimen, p = 0.04): 271.4% and 271%
Increase of biodistribution in the lung ([1]; rats, RT9Gy×3 f'x sequential compared to RT9Gy×3 f'x concurrent regimen, p = 0.004): 125%
Increase of biodistribution in the heart [1, 11]: 81.3%
Increase of biodistribution in the liver [1, 11]: 110.5%
Increase of biodistribution in the kidneys ([1]; rats, RT9Gy×3 f'x sequential compared to RT9Gy×3 f'x concurrent regimen, p = 0.048): 87.5%
Increase of biodistribution in the heart ([1]; rats, RT9Gy×3 f'x sequential regimen compared with control group, p = 0.01): 107.1% and 107%
Increase of biodistribution in the lung ([1]; rats, RT9Gy×3 f'x sequential regimen compared with control group, p = 0.02): 44%
Detection of cabozantinib in the brain ([1]; rats, any of the groups): No cabozantinib was detected
Increase of kidney biodistribution ([1]; rats, sequential RT2Gy×3 f'x compared to control group, p = 0.02): 31.8% and 32%
Decrease of Tmax [2]: 72.8%
Increase of CL [2]: 249.0%
Increase of Tmax [2]: 404.1%
concentration at 60 min ([8]; Sprague-Dawley, rat, plasma, po, 6 mg/kg): 800 ng/mL
AUC(0-t) [8, 13]: 5100 ng·h/mL
AUC(0-t) [8, 14]: 3900 ng·h/mL
AUC(0-t) [8, 15]: 4290 ng·h/mL
AUC(0-t) [8, 16]: 4180 ng·h/mL
AUC(0-t) [8, 17]: 4440 ng·h/mL
Cmax [8, 13]: 1600 ± 470 ng/mL
Cmax [8, 14]: 1360 ± 540 ng/mL
Cmax [8, 15]: 1370 ± 470 ng/mL
Cmax [8, 16]: 1350 ± 490 ng/mL
Cmax [8, 17]: 1440 ± 440 ng/mL
MRT [8, 13]: 13.7 h
MRT [8, 14]: 9.05 h
MRT [8, 15]: 11.2 h
MRT [8, 16]: 38.5 h
MRT [8, 17]: 26.7 h
Tmax [8, 13]: 0.611 h
Tmax [8, 14]: 3.08 h
Tmax [8, 15]: 0.639 h
Tmax [8, 16]: 2.92 h
Tmax [8, 17]: 2.25 h
Vss ([8]; RT 2Gy x 3 f'x concurrent): 3942 ± 1303 mL/kg
Vss ([8]; RT 2Gy x 3 f'x sequential): 5668 ± 2220 mL/kg
Vss ([8]; RT 9Gy x 3 f'x concurrent): 4204 ± 1272 mL/kg
Vss ([8]; RT 9Gy x 3 f'x sequential): 3153 ± 482 mL/kg
Vss ([8]; cabozantinib only (no RT)): 4831 ± 1307 mL/kg
SMILES: COc1cc2nccc(Oc3ccc(NC(=O)C4(C(=O)Nc5ccc(F)cc5)CC4)cc3)c2cc1OC [cabozantinib]
Rate of grade 3 or 4 adverse events ([3]; cabozantinib alone for HCC treatment): 10–17%
Serious adverse events rate ([3]; cabozantinib for HCC treatment): 12%
Grade 3 or 4 diarrhea [3, 12]: 10%
Grade 3 or 4 fatigue [3, 12]: 10%
Grade 3 or 4 hypertension [3, 12]: 16%
Grade 3 or 4 increased aspartate aminotransferase level [3, 12]: 12%
Grade 3 or 4 palmar–plantar erythrodysesthesia [3, 12]: 17%
Grade 3–4 AE rate ([4]; cabozantinib concurrent with SBRT): 3.6%
Grade 3–4 AE rate ([4]; cabozantinib concurrent with conventional RT): 6.3%
Half-life [5]: approximately 110 h
Increase of AUC of cabozantinib ([5]; liver function impaired): 63–81%
Time of second absorption peak after administration ([5]; plasma concentration–time profiles): approximately 24 h
Increase of AUC of cabozantinib ([5]; renal function impaired): 7–30%
Plasma protein binding (plasma protein): ≥ 99.7%
Osteonecrosis of jaw [6]: 1%
Risk of grade 3 or above hemorrhagic events [6]: 2.1–3%
Serious gastrointestinal perforation or fistula [6]: 1.2–3%
Effect on clonogenic survival [7]: a synergistic effect was found
Tumor growth control (tumor growth): not increased

SMILES: COc1cc2nccc(Oc3ccc(NC(=O)NC4CC4)c(Cl)c3)c2cc1C(N)=O [lenvatinib]
Increase of AUC of lenvatinib ([9]; sequential RT9Gyx3f'x group): 2 fold

SMILES: CNC(=O)c1cc(Oc2ccc(NC(=O)Nc3ccc(Cl)c(C(F)(F)F)c3)c(F)c2)ccn1 [regorafenib]
Increase of AUC of regorafenib ([9]; sequential RT9Gyx3f'x group): 1.3 fold

SMILES: CNC(=O)c1cc(Oc2ccc(NC(=O)Nc3ccc(Cl)c(C(F)(F)F)c3)cc2)ccn1 [sorafenib]
Increase of AUC of sorafenib ([9]; concurrent RT9Gy groups): 4 fold
Increase of AUC of sorafenib ([9]; sequential RT9Gy group): 1.6 fold
Complete recanalization rate, SBRT relative to conventional RT ([10]; SBRT with sorafenib versus conventional RT): 3 fold
Complete recanalization rate ([10]; SBRT with sorafenib): 28%
Complete recanalization rate ([10]; conventional RT with sorafenib): 8%
